# Earlier results, collected in US11413271B2, “Oral eliglustat transmucosal delivery system” (ABON PHARMACEUTICALS LLC., priority 2018, dated 2022).
structure (smiles),measurement,setting,value
CCCCCCCC(=O)N[C@H](CN1CCCC1)[C@H](O)c1ccc2c(c1)OCCO2 [eliglustat],Bioavailability in EMs (estimated),CYP2D6 extensive metabolizers,about 4.17%
same,Increase of systemic exposure (AUC0-12) at steady state compared to after the first dose (AUC0-∞),multiple oral doses of 84 mg twice daily in EMs,up to 2 fold
